Our source for the occlusion time values is article PMC8698482, “WPK5, a Novel Kunitz-Type Peptide from the Leech Whitmania pigra Inhibiting Factor XIa, and Its Loop-Replaced Mutant to Improve Potency” (Biomedicines, 2021).

The test system of this assay is C57BL/6J mice. Put plainly: FeCl3-induced carotid artery thrombosis model. Type of assay: in vivo. Particulars: heparin sodium 2.7 mg/kg by tail vein 10 min before 6% FeCl3; observed 30 min; n = 6. As for the experimental part: The in vivo antithrombotic activity of WPK5-Mut was evaluated by using a FeCl3-induced carotid artery thrombosis model in mice. Mice (C57BL/6J, males, 18–22 g) were anesthetized by intraperitoneal injection of chloral hydrate (5%, 10 mL/kg) and then placed in a supine position on a heating pad (37 °C) to maintain body temperature. An incision was made in the middle of the mouse’s neck and the fascia and muscle were gradually separated to expose the carotid artery. A rubber strip (4 × 10 mm) was placed under the artery to separate it from the surrounding tissues, and mice were injected heparin sodium (2.7 mg/kg), WPK5-Mut (0.75, 1.5 and 3 mg/kg) or saline through the tail vein and placed under a laser speckle contrast imaging (moor FLPI-2, Moor Instruments Limited, Millwey, Axminster, Devon, EX13 5HU, UK) to observe the carotid blood flow. […] The occlusion time was defined as the time from the removal of the FeCl3 saturated filter paper to the blockage of the vessel for at least 3 consecutive min [44]. If a vessel is blocked at a certain time for 3 consecutive min, this time is recorded as occlusion time, and if no blockage occurs within 30 min, the occlusion time is recorded as 30 min. The blood flow was analyzed by moorFLPI ReviewV50 software.

For heparin sodium, the occlusion time is listed as more than 30 min.
